One data set has as its system PKA. As to conditions: concentrations as high as 50 μM; cited from earlier work.
The subject of another data set is PKC. The note with it: concentrations as high as 50 μM; cited from earlier work.
The target of the next data set is T1, SGK (Homo sapiens, UniProt O00141).
T1 sequence (O00141 1-431): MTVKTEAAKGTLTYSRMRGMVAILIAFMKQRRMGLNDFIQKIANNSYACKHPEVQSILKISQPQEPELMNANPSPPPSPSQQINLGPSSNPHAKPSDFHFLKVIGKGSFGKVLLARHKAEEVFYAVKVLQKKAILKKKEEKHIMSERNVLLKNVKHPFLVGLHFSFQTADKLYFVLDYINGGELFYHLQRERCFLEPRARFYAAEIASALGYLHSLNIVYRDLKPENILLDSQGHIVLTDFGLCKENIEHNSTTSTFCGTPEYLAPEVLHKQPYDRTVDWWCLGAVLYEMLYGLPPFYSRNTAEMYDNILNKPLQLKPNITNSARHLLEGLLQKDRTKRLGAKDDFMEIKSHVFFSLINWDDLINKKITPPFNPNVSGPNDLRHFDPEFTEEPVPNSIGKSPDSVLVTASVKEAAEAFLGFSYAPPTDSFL
As to conditions: concentrations as high as 50 μM; cited from earlier work.

For data set [1], the system named is MAXF 1162 primary breast tumor explant xenografts. Briefly: In vivo tumor xenograft. Also on record: species or system mouse. The note with it: after 49 days, docetaxel 15 mg/kg iv day 0, 11, 22, 44. On the procedure:
(§1) The efficacy of the combinations of the invention may be measured in vivo by implanting allografts or xenografts of cancer cells in rodents and treating the tumor-bearing animals with the combinations. Variable results are to be expected depending on the cell line, the presence or absence of certain mutations in the tumor cells, the sequence of administration of Formula I or II compound and chemotherapeutic agent, dosing regimen, and other factors. Subject mice were treated with drug(s) or control (Vehicle) and monitored over several weeks or more to measure the time to tumor doubling, log cell kill, and tumor inhibition (Example 17).
(§2) Animals suitable for transgenic experiments can be obtained from standard commercial sources. Groups of female CD-1 nude mice (Charles River Laboratory) were implanted subcutaneously in the hind flank with 20 million MDA-MB-361.1 (PI3K mutant) breast cancer cells with matrigel and 0.36 mg of estrogen implants per mouse. Groups of female NMRI nu/nu mice (Janvier) were implanted with 150 mm3 fragments of MAXF 401 (Her2+/ER+/PR^+) or MAXF 1162 (Her2+/ER+/PR^+) primary breast tumors (biopsied directly from two individual breast cancer patients) with matrigel and 0.36 mg of estrogen pellets per mouse. Groups of female HRLN nu/nu (Harlan Labs) were implanted with 10 million MCF-7 (PI3K mutant) breast cancer cells with matrigel and 0.36 mg of estrogen pellets per mouse. Groups of female athymic nu/nu mice (Charles River Laboratory) were implanted with 15 million NCI-H2122 (K-Ras mutant) non-small cell lung cancer cells and matrigel per mouse. Mouse xenografts were dosed at day 1 with drug, drug combination, or vehicle according to the schedule specified for each tumor model. Docetaxel was administered intravenously, B20-1.4 was administered intraperitonealy and Formula Ia and IIa were delivered per os by oral gavage. Tumor sizes were recorded twice weekly over the course of the study. Mouse body weights were also recorded twice weekly, and the mice were observed regularly. Tumor volume was measured in two dimensions (length and width) using Ultra Cal-IV calipers (Model 54-10-111; Fred V. Fowler Co., Inc.; Newton, Mass.) and analyzed using Excel v.11.2 (Microsoft Corporation; Redmond, Wash.). Tumor inhibition graphs were plotted using KaleidaGraph, Version 3.6 (Synergy Software; Reading, Pa.). The tumor volume was calculated with formula: Tumor size (mm^3)=(longer measurement×shorter measurement^2)×0.5
(§3) The percent tumor growth inhibition (% INH) at the end of study (EOS) was calculated using formula: % INH=100×(EOS mean volume of tumors in animals given vehicle−EOS mean volume of tumors in animals given the drug)/EOS mean volume of tumors in animals given vehicle.
(§4) Tumor incidence (TI) was determined based on the number of measurable tumors remaining in each group at the end of the study. A partial response (PR) was defined as a>50% but <100% reduction in tumor volume, compared with the starting tumor volume, observed on any day of the study. A complete response (CR) was defined as a 100% reduction in tumor volume, compared with the initial tumor volume, observed on any day of the study. Data were analyzed and p-values were determined using the Dunnett's test with JMP statistical software, version 5.1.2 (SAS Institute; Cary, N.C.). Individual tumor volumes at end of study and mean tumor volume±SEM values were calculated using JMP statistical software, version 5.1.2. Body weight data were graphed based on the mean percentage of change from initial body weights±SEM.

Data set [2] concerns MAXF 401 primary breast tumor explant xenografts. Briefly: In vivo tumor xenograft. Also on record: species or system mouse. The protocol: as §1, §2, §3, §4
Data set [3] has as its system MCF-7 (PI3K mutant) breast tumor cell xenografts. Briefly: In vivo tumor xenograft. Details: species or system mouse. The note with it: after 21 days; for tumor inhibition: mB20-4.1 5 mg/kg ip twice a week 3 weeks. On the procedure: as §1, §2, §3, §4
The subject of data set [4] is MDA-MB-361.1 breast tumor cell xenografts. In words: In vivo tumor xenograft. Also on record: species or system mouse. The note with it: for tumor inhibition: docetaxel 5 mg/kg iv day 1, 5, 9. On the procedure:
as §1, §2, §3, §4

Data set [5] concerns NCI-H2122 non-small cell lung cancer (NSCLC) tumor xenografts. Briefly: In vivo tumor xenograft. Details: species or system mouse. As to conditions: erlotinib 75 mg/kg. On the procedure:
as §1, §2, §3, §4

The next data set in a line: Oral bioavailability. As to conditions: in vivo.
Data set [6] relates to small cell lung cancer (SCLC) tumors. Briefly: Genetically engineered mouse model (GEMM) for SCLC. It counts as in vivo. The text has this:
(§5) […]. Cancer Res. 12(18):5312-5328; US 2007/0292948, both of which are incorporated by reference in their entirety). The surprising and unexpected results from these experiments may predict the clinical response of certain patient populations having select tumor types and mutations to such combination therapy with Formula I and II compounds and chemotherapeutic agents.

The subject of data set [7] is pancreatic adenocarcinoma (PDAC) tumors. In words: Genetically engineered mouse model (GEMM) for pancreatic cancer. Format: in vivo.
Excerpt: as §5
A GEMM for pancreatic cancer (Aguirre et al. (2003) Genes & Development 17:3112-3126) encompasses the mutations found in a majority of patients with this disease.

Data set [8] concerns K-ras-driven NSCLC tumors. In words: K-ras-driven NSCLC GEMM. It counts as in vivo, mouse.
Excerpt: as §5

The next data set concerns pERK. The note with it: cited from earlier work.
Setting [9] is: FIG. 27, Formula IIa 100 mg/kg oral.
Where [10] appears, read: FIG. 25, day 28, Formula IIa 100 mg/kg oral day 0-3, 11-17, 21-28, docetaxel 15 mg/kg iv day 0 and 11.
[11] abbreviates: FIG. 25, end of the study (day 50).
Setting [12] is: FIG. 23, after 21 days, Formula IIa 37.5 mg/kg oral daily 21 days.
The mark [13] stands for this setting: FIG. 23, after 21 days, groups of 10 animals.
Where [14] appears, read: FIG. 26, Formula Ia 100 mg/kg oral.
Setting [15] is: FIG. 24, day 28, NMRI nu/nu mice, Formula Ia 100 mg/kg oral day 0-4, 11-17, 21-28, docetaxel 15 mg/kg iv day 0 and 11.
[16] abbreviates: FIG. 24, end of the study (day 50).
Setting [17] is: FIG. 22, after 21 days, CD-1 nude mice, Formula Ia 150 mg/kg oral daily 21 days.
[18] abbreviates: FIG. 22, after 41 days, Formula Ia 150 mg/kg oral daily 21 days.
[19] abbreviates: FIG. 22, after 41 days, groups of 11 (Formula Ia), 10 (docetaxel), 9 (combination) animals.

Turning to `O=c1[nH]c2ccccc2n1C1CCN(Cc2ccc(-c3nc4cc5[nH]cnc5cc4nc3-c3ccccc3)cc2)CC1` [Akti-1/2, 1,3-dihydro-1-(1-((4-(6-phenyl-1H-imidazo[4,5-g]quinoxalin-7-yl)phenyl)methyl)-4-piperidinyl)-2H-benzimidazol-2-one], the inhibitory effect result with PKA, with PKC and at SGK was “does not exhibit any inhibitory effect” each time.
As to `CS(=O)(=O)N1CCN(Cc2cc3c(N4CCOCC4)nc(-c4cccc5[nH]ncc45)nc3s2)CC1` [Formula IIa, 4-(2-(1H-indazol-4-yl)-6-((4-(methylsulfonyl)piperazin-1-yl)methyl)thieno[2,3-d]pyrimidin-4-yl)morpholine], the tumor inhibition in data set [1] (setting [9]) was determined as 32%; in data set [2] (setting [10]), 82%; in [2] (setting [11]) it was 51%; in [3] (FIG. 31, Formula IIa 100 mg/kg oral daily 21 days), 5%; in data set [4] (setting [12]), 30%; in data set [5] (FIG. 29, end of study, Formula IIa 50 mg/kg, oral daily 14 days), 27%. In addition, the partial regressions in data set [3] (FIG. 31) was determined as 0; in data set [4] (setting [13]), 2. The oral bioavailability result in the data set “Oral bioavailability” is on record as “orally bioavailable”.
For `CS(=O)(=O)N1CCN(Cc2cc3nc(-c4cccc5[nH]ncc45)nc(N4CCOCC4)c3s2)CC1` [Formula Ia, 4-(2-(1H-indazol-4-yl)-6-((4-(methylsulfonyl)piperazin-1-yl)methyl)thieno[3,2-d]pyrimidin-4-yl)morpholine], the tumor inhibition worked out at 54% in [1] (setting [14]); 49% in [2] (setting [15]); 10% in [2] (setting [16]); 36% in data set [3] (FIG. 30, HRLN nu/nu mice, Formula Ia 150 mg/kg oral daily 21 days); 75% in data set [4] (setting [17]); 66% in [4] (setting [18]). Moreover, the tumor inhibition in data set [5] (FIG. 28, after 20 days, Formula Ia 50 mg/kg, oral daily 16 days) came out at 17%. Moreover, the results for the partial regressions in data set [3] (FIG. 30) and in [4] (setting [19]) were 0 and 3, respectively. For the same molecule, the survival entry in [6] is on record as “did have an effect (significant hazard ratio) on survival”; in data set [7], “modest (not statistically significant) effect on survival”; in [8], “no effect on survival”. The “tumor growth as assessed by microCT imaging” value in data set [6] is listed as “did not show effects on tumor growth”. Also, in data set [7], the “tumor growth via ultrasound” value is recorded as “initial decrease in tumor growth”. For the same molecule, the “tumor growth as measured by microCT imaging” value in [8] is “minimally affected tumor growth”. For the same molecule, in “Oral bioavailability”, the oral bioavailability entry is reported as “orally bioavailable”.
Regarding `Cc1c(CN2CCN(C(=O)[C@H](C)O)CC2)sc2c(N3CCOCC3)nc(-c3cnc(N)nc3)nc12` [Formula Ib, (S)-1-(4-((2-(2-aminopyrimidin-5-yl)-7-methyl-4-morpholinothieno[3,2-d]pyrimidin-6-yl)methyl)piperazin-1-yl)-2-hydroxypropan-1-one], the oral bioavailability entry in the data set “Oral bioavailability” is “orally bioavailable”.
In the case of `OCCn1cc(-c2ccc3c(c2)CC/C3=N\O)c(-c2ccncc2)n1` [HPPD, 5-(1-(2-hydroxyethyl)-3-(pyridin-4-yl)-1H-pyrazol-4-yl)-2,3-dihydro-1H-inden-1-one oxime], the half-inhibitory concentration (IC50) (as a rule, the concentration at which inhibition is half-maximal) in the data set on pERK is 0.087 µM.
As to “(2R,3S)-N-carboxy-3-phenylisoserine, N-tert-butyl ester, 13-ester with 5,20-epoxy-1,2,4,7,10,13-hexahydroxytax-11-en-9-one 4-acetate 2-benzoate, trihydrate [docetaxel, reference compound]”, the tumor inhibition in data set [1] (setting [14]) came out at 36%; in [1] (setting [9]) it was 36%; in data set [2] (setting [15]), 95%; in [2] (setting [16]), 68%; in data set [2] (setting [10]) it was 95%; in data set [2] (setting [11]), 68%. In addition, the tumor inhibition was found to be 78% in [4] (setting [17]), 26% in data set [4] (setting [18]) and 35% in data set [4] (setting [12]). Also, the partial regressions in data set [4] (setting [19]) is recorded as 2; in data set [4] (setting [13]), 3.
